Experimental data: patent US11452731B2, “Method of treating and preventing loss of cognition” (ENDORECHERCHE, INC., priority 2009, dated 2022)
Marks after values point to notes of the source that are not given here.

Legend:
[1] = 3-month treatment of ovariectomized rats: lumbar spine BMD, total body fat, serum cholesterol, ALP (Example 4, experiment 1); assay type: in vivo, rat; conditions: OVX rats, 3 months; for LUMBAR SPINE BMD / LUMBAR SPINE Prevention of Bone Loss: E2 1 mg/kg, EM-652.HCl 2.5 mg/kg, DHEA 80 mg/kg
Procedure: (§1) Ten to twelve week-old female Sprague-Dawley rats (Crl:CD(SD)Br) (Charles River Laboratory, St-Constant, Canada) weighing approximately 220-270 g at start of treatment were used. The animals were acclimatized to the environmental conditions (temperature: 22±3° C.; humidity: 50±20%; 12-h light-12-h dark cycles, lights on at 07:15 h) for at least 1 week before starting the experiments. The animals were housed individually and were allowed free access to tap water and a pelleted certified rodent feed (Lab Diet 5002, Ralston Purina, St-Louis, Mo.). Experiments were conducted in an animal facility approved by the Canadian Council on Animal Care (CCAC) and the Association for Assessment and Accreditation of Laboratory Animal Care (AAALAC) in accordance with the CCAC Guide for Care and Use of Experimental Animals.
On day 1 of the study, the animals of the appropriate groups were bilaterally ovariectomized (OVX) under isoflurane anesthesia. The DHEA was applied topically on the dorsal skin as a solution in 50% ethanol-50% propylene glycol while the other tested compounds were administered as suspension in 0.4% methylcellulose by oral gavage. Treatments were initiated on day 2 of the study and were performed once daily during 3 months.
After 3 months (experiment 1) or 26 weeks (experiment 2) of treatment, individual rats under Isoflurane anesthesia had their whole body skeleton and lumbar spine scanned using dual energy x-ray absorptiometry (DEXA; QDR 4500A, Hologic, Waltham, Mass.) and a Regional High Resolution Scan software. The bone mineral density (BMD) of the lumbar spine (vertebrae L2 to L4) and the total body composition (fat percentage) were determined.
After 3 months (experiment 1) or 26 weeks (experiment 2) of treatment, blood samples were collected at the jugular vein from overnight fasted animals (under Isoflurane anesthesia). Samples were processed for serum preparation and frozen at −80° C. until assay. Serum cholesterol levels and alkaline phospatase activity (ALP) were determined using the Boehringer Mannheim Diagnostic Hitachi 911 Analyzer (Boehringer Mannheim Diagnostic Laboratory Systems).

[2] = Uterine, vaginal and body weight in estrone-supplemented OVX nude mice (Example 1); assay type: in vivo
Procedure: DHEA was dissolved in 50% ethanol 50% propylene glycol. […] Tumors were measured once a week with Vernier calipers.

[3] = tested on: ZR-75-1 human breast cancer xenografts; test: Growth and response of human ZR-75-1 breast tumor xenografts in estrone-supplemented OVX nude mice, DHEA and/or EM-800 for 9.5 months (Example 1); assay type: in vivo; conditions: for Inhibition of estrone-stimulated ZR-75-1 tumor size / Category of response: Complete (%) / Category of response: Complete (Number) / Category of response: Partial (%) / Category of response: Partial (Number) / Category of response: Progression (%) / Category of response: Progression (Number) / Category of response: Stable (%) / Category of response: Stable (Number) / Average tumor weight at end of experiment: 9.5 months; for Category of response: Complete (%) / Category of response: Complete (Number) / Category of response: Partial (%) / Category of response: Partial (Number) / Category of response: Progression (%) / Category of response: Progression (Number) / Category of response: Stable (%) / Category of response: Stable (Number) / Average tumor weight at end of experiment: E1-supplemented
[4] = Clinical trial ERC-213: DHEA vaginal suppositories for 7 days, maturation index and vaginal pH in postmenopausal women (Example 11); assay type: in vivo
Procedure: Data are expressed as means±SEM (n=9 or 10). *, p<0.05, **, p<0.01, Data on Day 7 versus Data on Day 1.
The primary objective of that study was measurement of the maturation value of the vaginal epithelial cells following daily intravaginal application of DHEA. Forty postmenopausal women were randomized to receive a daily dose of one ovule of the following DHEA concentrations: 0.0%, 0.5% (6.5 mg of DHEA/ovule), 1.0% (13 mg of DHEA/ovule) or 1.8% (23.4 mg of DHEA/ovule) for 7 days. The systemic bioavailability of DHEA and its metabolites were also measured.

[5] = 5-week treatment of ovariectomized rats with SERMs alone or with DHEA: BMD of lumbar spine, femur, tibia (Example 5); assay type: in vivo, rat; conditions: OVX rats, 5 weeks; for LUMBAR SPINE (L2-L4) BMD / LUMBAR SPINE (L2-L4) Prevention of Bone Loss: SERMs 2.5 mg/kg, DHEA 80 mg/kg
Procedure: as §1
On day 1 of the study, the animals of the appropriate groups were bilaterally ovariectomized (Ovx) under isoflurane anesthesia. The DHEA was applied topically on the dorsal skin as a solution in 50% ethanol-50% propylene glycol while the tested SERMs were administered as suspension in 0.4% methylcellulose by oral gavage. Treatments were initiated on day 2 of the study and were performed once daily during 5 weeks.
After 5 weeks of treatment, individual rats under Isoflurane anesthesia had their lumbar spine, femur and tibia scanned using dual energy x-ray absorptiometry (DEXA; QDR 4500A, Hologic, Waltham, Mass.) and a Regional High Resolution Scan software. The bone mineral density (BMD) of the lumbar spine (vertebrae L2 to L4), distal femoral metaphysis (DFM) and proximal tibial metaphysis (PTM) were determined.

[6] = Endometrial epithelium thickness in OVX nude mice after 161 days of antiestrogen (Example 8); assay type: in vivo
Method in brief: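 OVX nude mice received antiestrogen with or without an estrone implant; controls were OVX and OVX+Estrone. Antiestrogens were given as suspensions for 161 days. Uteri were then collected and H&E sections analysed by image analysis for mean endometrial epithelial cell height.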

[7] = DHEA 0.3 mg, EM-800 15 μg, or EM-800 15 μg + DHEA 0.3 mg
[8] = DHEA 1.0 mg, EM-800 50 μg, or EM-800 15 μg + DHEA 1.0 mg
[9] = DHEA 3.0 mg, EM-800 100 μg, or EM-800 15 μg + DHEA 3.0 mg

SMILES: C[C@]12CC[C@H](O)CC1=CC[C@@H]1[C@@H]2CC[C@]2(C)C(=O)CC[C@@H]12 [DHEA, dehydroepiandrosterone]
- ALP (serum alkaline phosphatase activity) [1]: 224±18 IU/L
- CHOLESTEROL (serum) [1]: 1.59 ± 0.10 mmol/L
- TOTAL FAT [1]: 17.3 ± 1.5 %
- LUMBAR SPINE BMD [1]: 0.2321 ± 0.0034 g/cm^2
- LUMBAR SPINE Prevention of Bone Loss [1]: 43%
- effect on body weight adjusted for tumor weight ([2]; 9.5 months): No significant effect
- inhibition of the stimulatory effect of estrone on uterine weight ([2]; highest dose of DHEA used): 26%
- Inhibition of estrone-stimulated ZR-75-1 tumor size ([3]; daily DHEA 0.3 mg or EM-800 15 μg): 50.4%
- Inhibition of estrone-stimulated ZR-75-1 tumor size ([3]; daily DHEA 1.0 mg or EM-800 50 μg): 76.8%
- Inhibition of estrone-stimulated ZR-75-1 tumor size ([3]; daily DHEA 3.0 mg or EM-800 100 μg): 80.0%
- Inhibition of terminal tumor weight ([3]; DHEA 0.3 mg): 67%
- Inhibition of terminal tumor weight ([3]; DHEA 1.0 mg): 82%
- Inhibition of terminal tumor weight ([3]; DHEA 3.0 mg): 85%
- Category of response: Complete (%) [3, 7]: 28.6%
- Category of response: Complete (Number) [3, 7]: 4
- Category of response: Partial (%) [3, 7]: 0 (0) %
- Category of response: Partial (Number) [3, 7]: 0 (0)
- Category of response: Progression (%) [3, 7]: 50.0%
- Category of response: Progression (Number) [3, 7]: 7
- Category of response: Stable (%) [3, 7]: 21.4%
- Category of response: Stable (Number) [3, 7]: 3
- Category of response: Complete (%) [3, 8]: 26.7%
- Category of response: Complete (Number) [3, 8]: 4
- Category of response: Partial (%) [3, 8]: 0 (0) %
- Category of response: Partial (Number) [3, 8]: 0 (0)
- Category of response: Progression (%) [3, 8]: 53.3%
- Category of response: Progression (Number) [3, 8]: 8
- Category of response: Stable (%) [3, 8]: 20.0%
- Category of response: Stable (Number) [3, 8]: 3
- Category of response: Complete (%) [3, 9]: 20.0%
- Category of response: Complete (Number) [3, 9]: 3
- Category of response: Partial (%) [3, 9]: 0 (0) %
- Category of response: Partial (Number) [3, 9]: 0 (0)
- Category of response: Progression (%) [3, 9]: 66.7%
- Category of response: Progression (Number) [3, 9]: 10
- Category of response: Stable (%) [3, 9]: 13.3%
- Category of response: Stable (Number) [3, 9]: 2
- Average tumor weight at end of experiment ([3]; daily DHEA 0.3 mg, EM-800 15 μg, or EM-800 15 μg + DHEA 0.3 mg): 0.37 ± 0.12 g
- Average tumor weight at end of experiment ([3]; daily DHEA 1.0 mg, EM-800 50 μg, or EM-800 15 μg + DHEA 1.0 mg): 0.20 ± 0.06 g
- Average tumor weight at end of experiment ([3]; daily DHEA 3.0 mg, EM-800 100 μg, or EM-800 15 μg + DHEA 3.0 mg): 0.17 ± 0.06 g
- increase of maturation index, Day 7 versus Day 1 ([4]; 0.5% DHEA vaginal suppository daily): 107%
- Vaginal pH ([4]; 0.5% DHEA, Day 1 (before)): 6.29±0.21
- Vaginal pH ([4]; 0.5% DHEA, Day 7): 5.75±0.27
- increase of maturation index, Day 7 versus Day 1 ([4]; 1.0% DHEA vaginal suppository daily): 75%
- Vaginal pH ([4]; 1.0% DHEA, Day 1 (before)): 6.47±0.23
- Vaginal pH ([4]; 1.0% DHEA, Day 7): 5.76±0.22
- increase of maturation index, Day 7 versus Day 1 ([4]; 1.8% DHEA vaginal suppository daily): 150%
- Vaginal pH ([4]; 1.8% DHEA, Day 1 (before)): 6.53±0.25
- Vaginal pH ([4]; 1.8% DHEA, Day 7): 5.86±0.28
- DISTAL FEMORAL METAPHYSIS (DFM) BMD [5]: 0.2934 ± 0.0046 g/cm^2
- DISTAL FEMORAL METAPHYSIS (DFM) Prevention of Bone Loss [5]: 71%
- PROXIMAL TIBIAL METAPHYSIS (PFM) BMD [5]: 0.2672 ± 0.0041 g/cm^2
- PROXIMAL TIBIAL METAPHYSIS (PFM) Prevention of Bone Loss [5]: 42%
- LUMBAR SPINE (L2-L4) BMD [5]: 0.2144 ± 0.0028 g/cm^2
- LUMBAR SPINE (L2-L4) Prevention of Bone Loss [5]: 44%

SMILES: CC1=C(c2ccc(O)cc2)[C@H](c2ccc(OCCN3CCCCC3)cc2)Oc2cc(O)ccc21.Cl [EM-652.HCl, (S)-(+)-7-hydroxy-3-(4′-hydroxyphenyl)-4-methyl-2-(4″-(2′″-piperidinoethoxy)phenyl)-2H-1-benzopyran hydrochloride]
- ALP (serum alkaline phosphatase activity) [1]: 91 ± 6 IU/L
- CHOLESTEROL (serum) [1]: 0.87 ± 0.04 mmol/L
- LUMBAR SPINE BMD [1]: 0.2374 ± 0.0027 g/cm^2
- LUMBAR SPINE Prevention of Bone Loss [1]: 65%
- TOTAL FAT ([1]; hydrochloride): completely prevented
- TOTAL FAT ([1]; listed as EM-652•HCl, hydrochloride): 23.2 ± 1.4 %
- inhibition of the stimulatory effect of estrone on epithelial height ([6]; 50 μg daily oral, estrone stimulation): 70%
- height of uterine epithelial cells, % of the OVX control group value ([6]; 200 μg daily, absence of estrone): 114%
- ENDOMETRIAL EPITHELIUM THICKNESS (μm) ± SEM ([6]; OVX + E1, antiestrogen 50 μg daily): 25.06^b ± 0.07 μm
- ENDOMETRIAL EPITHELIUM THICKNESS (μm) ± SEM ([6]; OVX without E1, antiestrogen 200 μg daily): 20.79 ± 0.10 μm
- DISTAL FEMORAL METAPHYSIS (DFM) BMD [5]: 0.3008 ± 0.0055 g/cm^2
- DISTAL FEMORAL METAPHYSIS (DFM) Prevention of Bone Loss [5]: 95%
- PROXIMAL TIBIAL METAPHYSIS (PFM) BMD [5]: 0.2806 ± 0.0035 g/cm^2
- PROXIMAL TIBIAL METAPHYSIS (PFM) Prevention of Bone Loss [5]: 92%
- LUMBAR SPINE (L2-L4) BMD [5]: 0.2232 ± 0.0031 g/cm^2
- LUMBAR SPINE (L2-L4) Prevention of Bone Loss [5]: 86%
